From US20080139534A1, “Bisbenzamidines and bisbenzamidoximes for the treatment of human African trypanosomiasis” (XAVIER UNIVERSITY OF LOUISIANA, priority 2006, published 2008)
Marks after values point to notes of the source that are not given here.

Assays:
[1] = system: T. b. rhodesiense KETRI 243; test: In vitro trypanocidal activity, bloodforms in HMI-18 medium, Coulter counts; assay type: cell-based, Trypanosoma brucei rhodesiense; conditions: 48 h exposure
Description: The compounds were tested against trypanosome isolates grown as blood forms in HMI-18 medium containing 20% horse serum in 24 well microplates at 37° C. in 5% CO2. Wells were inoculated with 1×10^5 trypanosomes. […] One-half the volume was replaced daily. Cell counts were made daily with a Coulter Counter, Model Z1 (Beckman Coulter, Miami, Fla., USA). Cells were diluted with Isoton I buffer (Beckman Coulter) and the aperture was standardized at 5.14 μm. Background checks were performed daily on 1:10 dilutions of medium. Counts, normalization, and coincident counts were accounted for by the standardized Coulter analysis program. Occasionally, hemocytometer counts were performed as a check on the validity of the Coulter program. IC50 values were determined after 48 h from semi-log plots and the values are the result of duplicate determinations. Initially a broad concentration curve was used and then a close concentration curve from which IC50 values were determined. Assays were done in duplicate and each point was the average of the two. Control cells grew to 5×10^6/ml.
Coulter counts were made daily and IC50 values determined after 48 hours exposure.

[2] = system: T. b. brucei Lab 110 EATRO; test: as above; assay type: cell-based, Trypanosoma brucei brucei; conditions: 48 h exposure, bloodforms; read-out: Lab 100 EATRO IC50
[3] = system: poly(dA-dT); test: Thermal denaturation study, DNA binding affinity (ΔTm); conditions: 1:5 compound to base pair ratio;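 further: shift in the midpoint temperature of the thermal melting curve of poly(dA-dT), each value the mean of two or more independent determinations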
Description: (§1) The binding affinity was measured by determining the change in the midpoint (Tm) of the thermal denaturation curves of calf thymus DNA as well as poly(dA-dT) at a 1:5 compound to base pair ratio.

[4] = system: T. b. brucei Lab 110 EATRO; test: In vivo efficacy in infected mice; set-up: species or system Trypanosoma brucei brucei
Description: Female Swiss-Webster mice (weight, 20 g) were infected (intraperitoneally) with 2.5×10^5 trypanosomes from rat blood, and the infection was allowed to develop for 24 h before drug treatment was begun. Groups of three mice each were injected (intraperitoneally) with each drug concentration. All of the experiments included a group of untreated controls. […] Parasitemia of animals dying of infection averaged 0.5-1.0×10^9/mL of blood. These infections are very predictable and daily counts were not done because of the labor involved. […] Animals were monitored weekly for parasites in tail vein blood smears. Mice were considered cured if they survived more than 30 days after the death of the last control with no parasites in tail vein blood smears. MSD (mean survival in days) was also recorded for each group. It is the average time of survival of the animals in the group, exclusive of cured animals.
Mice were infected with 250,000 parasites and dosing commenced 24 h. post infection. Mice were separated into groups of three and given single i.p doses for 3 days unless otherwise noted. Infected untreated controls were used for each experiment. Mice were considered cured if surviving more than 30 days beyond death of controls without parasites in tail vein blood smears. MSD, mean survival in days, exclusive of cured animals.

[5] = system: calf thymus DNA; test: Thermal denaturation study, DNA binding affinity (ΔTm); conditions: 1:5 compound to base pair ratio;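 further: shift in midpoint melting temperature of calf thymus DNA thermal denaturation curves caused by compound binding, values averaged over at least two determinations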
Description: as §1

[6] = mice, 1 mg/kg/day i.p. for 3 days
[7] = mice, 5 mg/kg/day i.p. for 3 days
[8] = mice, 10 mg/kg/day i.p. for 3 days
[9] = mice, 1, 2.5, 5, 10, 15, 25 mg/kg/day i.p. for 3 days (all doses failed to cure)
[10] = mice, 1, 2.5, 5, 10, 15, 25 mg/kg/day i.p. for 3 days (all doses)

SMILES: Cl.Cl.N=C(NC1CCCCCC1)c1ccc(N2CCN(c3ccc(C(=N)NC4CCCCCC4)cc3)CC2)cc1 [compound 0129]
- IC50 [1]: 22 nM
- IC50 [2]: 18 nM
- DNA Binding Δ Tm Poly (dA-dT) [3]: 18.7 °C
- # Cured/#Treated (%) [4, 6]: 0/3
- MSD [4, 6]: 7.5 days
- MSD [4, 7]: 9 days
- MSD ([4]; mice, 7.5 mg/kg/day i.p. for 3 days): >30 days
- MSD [4, 8]: >30 days
- MSD ([4]; mice, 15 mg/kg/day i.p. for 3 days): >30 days
- DNA Binding Δ Tm Calf thymus [5]: 15.6 °C

SMILES: N=C(N)c1ccc(OCc2ccccc2COc2ccc(C(=N)N)cc2)cc1 [compound 0513]
- IC50 [1]: 2.55 nM
- IC50 [2]: 1.25 nM
- DNA Binding Δ Tm Poly (dA-dT) [3]: −0.1 °C
- # Cured/#Treated (%) [4, 9]: 0/3^a
- MSD [4, 10]: 5 days
- DNA Binding Δ Tm Calf thymus [5]: −0.2 °C

SMILES: CCCCCCNC(=N)c1ccc(N2CCN(c3ccc(C(=N)NCCCCCC)cc3)CC2)cc1.Cl.Cl [compound 0128]
- IC50 [1]: 23.9 nM
- IC50 [2]: 13 nM
- DNA Binding Δ Tm Poly (dA-dT) [3]: 10.1 °C
- # Cured/#Treated (%) [4, 9]: 0/3^a
- MSD [4, 10]: 5.3 to 10.6 days
- DNA Binding Δ Tm Calf thymus [5]: 10.7 °C

SMILES: N=C(N)c1ccc(COc2ccccc2OCc2ccc(C(=N)N)cc2)cc1 [compound 0519]
- IC50 [1]: 2.1 nM
- IC50 [2]: 1.3 nM
- DNA Binding Δ Tm Poly (dA-dT) [3]: −0.1 °C
- # Cured/#Treated (%) [4, 9]: 0/3^a
- MSD [4, 10]: 5 days
- DNA Binding Δ Tm Calf thymus [5]: 0.1 °C

SMILES: CCNC(=N)c1ccc(N2CCN(c3ccc(C(=N)NCC)cc3)CC2)cc1.Cl.Cl [compound 0140]
- IC50 [1]: 33 nM
- IC50 [2]: 13 nM
- DNA Binding Δ Tm Poly (dA-dT) [3]: 18.6 °C
- # Cured/#Treated (%) [4, 6]: 0/3
- MSD [4, 6]: 5 days
- MSD [4, 7]: 18 days
- MSD [4, 8]: 17 days
- DNA Binding Δ Tm Calf thymus [5]: 15.3 °C

SMILES: CCCCCCCCCNC(=N)c1ccc(N2CCN(c3ccc(C(=N)NCCCCCCCCC)cc3)CC2)cc1.Cl.Cl [compound 0132]
- IC50 [1]: 210 nM
- IC50 [2]: 100 nM
- DNA Binding Δ Tm Poly (dA-dT) [3]: 2.7 °C
- DNA Binding Δ Tm Calf thymus [5]: 1.3 °C

SMILES: CCCCNC(=N)c1ccc(N2CCCN(c3ccc(C(=N)NCCCC)cc3)CC2)cc1.Cl.Cl [74N]
- IC50 [1]: 79 nM
- IC50 [2]: 180 nM
- DNA Binding Δ Tm Poly (dA-dT) [3]: 13.3 °C
- DNA Binding Δ Tm Calf thymus [5]: 11.8 °C

SMILES: CC(C)CCNC(=N)c1ccc(N2CCN(c3ccc(C(=N)NCCC(C)C)cc3)CC2)cc1.Cl.Cl [compound 0135]
- IC50 [1]: 61 nM
- IC50 [2]: 72 nM
- DNA Binding Δ Tm Poly (dA-dT) [3]: 21.8 °C
- DNA Binding Δ Tm Calf thymus [5]: 15.3 °C

SMILES: Cl.Cl.c1cc(C2=NCCN2)ccc1CC1CCCN(c2ccc(C3=NCCN3)cc2)C1 (stereo not shown) [4CF]
- IC50 [1]: 85 nM
- IC50 [2]: 86 nM
- DNA Binding Δ Tm Poly (dA-dT) [3]: 14.1 °C
- DNA Binding Δ Tm Calf thymus [5]: 9.9 °C

SMILES: CN=C(N)c1ccc(N2CCN(c3ccc(C(N)=NC)cc3)CC2)cc1 [compound 0112, N,N′-Dimethyl 4,4′-(1,4-piperazinediyl)bisbenzenecarboxidamide]
- IC50 [1]: 33 nM
- IC50 [2]: 205 nM
- DNA Binding Δ Tm Poly (dA-dT) [3]: 22.2 °C
- DNA Binding Δ Tm Calf thymus [5]: 15.2 °C

SMILES: N#Cc1ccc(N2CCN(c3ccc(C#N)cc3)CC2)cc1 [compound 0101]
- IC50 [1]: 1050 nM
- IC50 [2]: 2890 nM
- DNA Binding Δ Tm Poly (dA-dT) [3]: −0.3 °C
- DNA Binding Δ Tm Calf thymus [5]: 0.1 °C

SMILES: Cl.Cl.N=C(NC1CC1)c1ccc(N2CCCN(c3ccc(C(=N)NC4CC4)cc3)CC2)cc1 [73C]
- IC50 [1]: 810 nM
- IC50 [2]: 870 nM
- DNA Binding Δ Tm Poly (dA-dT) [3]: 23.6 °C
- DNA Binding Δ Tm Calf thymus [5]: 15.3 °C

SMILES: CCCCCCCCCCCCNC(=N)c1ccc(N2CCN(c3ccc(C(=N)NCCCCCCCCCCCC)cc3)CC2)cc1.Cl.Cl [compound 0136]
- IC50 [1]: 125 nM
- IC50 [2]: 660 nM
- DNA Binding Δ Tm Poly (dA-dT) [3]: 0.0 °C
- DNA Binding Δ Tm Calf thymus [5]: 0.6 °C

SMILES: c1cc(N2CCN(c3ccc(C4OCCO4)cc3)CC2)ccc1C1OCCO1 [compound 0111]
- IC50 [1]: 2300 nM
- IC50 [2]: 5800 nM
- DNA Binding Δ Tm Poly (dA-dT) [3]: 0.1 °C
- DNA Binding Δ Tm Calf thymus [5]: −1.2 °C

SMILES: C(=C1CCCN(c2ccc(C3=NCCN3)cc2)C1)c1ccc(C2=NCCN2)cc1.Cl.Cl (mixture of isomers) [3SF]
- IC50 [1]: 84 nM
- IC50 [2]: 71 nM
- DNA Binding Δ Tm Poly (dA-dT) [3]: 15.0 °C
- DNA Binding Δ Tm Calf thymus [5]: 12.0 °C
